According to ChEMBL document CHEMBL3526058, “Investigating the enteroenteric recirculation of apixaban, a factor Xa inhibitor: administration of activated charcoal to bile duct-cannulated rats and dogs receiving an intravenous dose and use of drug transporter knockout rats” (Drug Metab Dispos, 2013):

Columns and labels:
[1] = Drug recovery in urine of Sprague-Dawley rat at 2 mg/kg, iv measured up to 168 hrs; assay type: ADME, organism-based; parameters: dose 2 mg/kg, route intravenous; conditions: read-out: Drug recovery
[2] = Volume of distribution at steady state in wild-type bile duct-cannulated Sprague-Dawley rat at 2 mg/kg, iv; assay type: ADME, organism-based; parameters: dose 2 mg/kg, route intravenous; conditions: in vivo, read-out: Vdss
Rattus norvegicus [3] = assay: Metabolism and biliary clearance in wild-type 30 mins activated charcoal pre-treated bile duct-cannulated Sprague-Dawley rat at 2 mg/kg, iv followed by activated charcoal administration 5 to 180 mins post compound dosing relative to total clearance; assay type: ADME, organism-based; parameters: dose 2 mg/kg, route intravenous; conditions: in vivo
[4] = Drug recovery in urine of bile duct-cannulated beagle dog at 1 mg/kg, iv administered as 5 mins infusion measured up to 72 hrs; assay type: ADME, organism-based, Canis lupus familiaris; parameters: dose 1 mg/kg, route intravenous; conditions: read-out: Drug recovery
[5] = Drug recovery in feces of beagle dog at 5 mg/kg, po measured up to 72 hrs; assay type: ADME, organism-based, Canis lupus familiaris; parameters: dose 5 mg/kg, route oral; conditions: read-out: Drug recovery
[6] = Renal clearance in P-gp-knockout Sprague-Dawley rat at 2 mg/kg, iv; assay type: ADME, organism-based, Kidney; parameters: dose 2 mg/kg, route intravenous; conditions: in vivo
[7] = Drug recovery in bile of bile duct-cannulated Sprague-Dawley rat at 30 mg/kg, po measured up to 48 hrs; assay type: ADME, organism-based; parameters: dose 30 mg/kg, route oral; conditions: read-out: Drug recovery
[8] = Drug recovery in bile of 30 mins activated charcoal pre-treated bile duct-cannulated Sprague-Dawley rat at 2 mg/kg, iv followed by activated charcoal administration 5 to 180 mins post compound dosing measured up to 48 hrs; assay type: ADME, organism-based; parameters: dose 2 mg/kg, route intravenous; conditions: read-out: Drug recovery
[9] = Clearance in wild-type 30 mins activated charcoal pre-treated bile duct-cannulated Sprague-Dawley rat at 2 mg/kg, iv followed by activated charcoal administration 5 to 180 mins post compound dosing; assay type: ADME, organism-based; parameters: dose 2 mg/kg, route intravenous; conditions: in vivo
[10] = Half life in bile duct-cannulated beagle dog at 1 mg/kg, iv administered as 5 mins infusion followed by activated charcoal administration 10 to 420 mins post compound dosing; assay type: ADME, organism-based, Canis lupus familiaris; parameters: dose 1 mg/kg, route intravenous; conditions: in vivo
[11] = Renal clearance in wild-type bile duct-cannulated Sprague-Dawley rat at 2 mg/kg, iv administered 0.125 hr post GF-120918 treatment; assay type: ADME, organism-based, Kidney; parameters: dose 2 mg/kg, route intravenous; conditions: in vivo, with GF-120918
Rattus norvegicus [12] = assay: Metabolism and biliary clearance in P-gp-knockout Sprague-Dawley rat at 2 mg/kg, iv; assay type: ADME, organism-based, Bile; parameters: dose 2 mg/kg, route intravenous; conditions: in vivo
[13] = Drug recovery in urine of bile duct-cannulated BCRP-knockout Sprague-Dawley rat at 2 mg/kg, iv measured up to 24 hrs; assay type: ADME, organism-based; parameters: dose 2 mg/kg, route intravenous; conditions: read-out: Drug recovery
[14] = Half life in bile duct-cannulated beagle dog at 1 mg/kg, iv administered as 5 mins infusion; assay type: ADME, organism-based, Canis lupus familiaris; parameters: dose 1 mg/kg, route intravenous; conditions: in vivo
[15] = Plasma protein binding in beagle dog; assay type: ADME, cell-free, Canis lupus familiaris; conditions: read-out: PPB (converted)
Rattus norvegicus [16] = assay: Intestinal clearance in BCRP-knockout Sprague-Dawley rat at 2 mg/kg, iv; assay type: ADME, organism-based; parameters: dose 2 mg/kg, route intravenous; conditions: in vivo
Rattus norvegicus [17] = assay: Intestinal clearance in wild-type 30 mins activated charcoal pre-treated bile duct-cannulated Sprague-Dawley rat at 2 mg/kg, iv followed by activated charcoal administration 5 to 180 mins post compound dosing; assay type: ADME, organism-based; parameters: dose 2 mg/kg, route intravenous; conditions: in vivo
[18] = Renal clearance in bile duct-cannulated beagle dog at 1 mg/kg, iv administered as 5 mins infusion followed by activated charcoal administration 10 to 420 mins post compound dosing; assay type: ADME, organism-based, Canis lupus familiaris, Kidney; parameters: dose 1 mg/kg, route intravenous; conditions: in vivo
Rattus norvegicus [19] = assay: Metabolism and biliary clearance at 8 hrs in wild-type bile duct-cannulated Sprague-Dawley rat at 2 mg/kg, iv administered 0.125 hr post GF-120918 treatment; assay type: ADME, organism-based; parameters: dose 2 mg/kg, route intravenous; conditions: in vivo
[20] = Plasma protein binding in Sprague-Dawley rat; assay type: ADME, cell-free; conditions: read-out: PPB (converted)
Canis familiaris [21] = assay: Metabolism and biliary clearance in bile duct-cannulated beagle dog at 1 mg/kg, iv administered as 5 mins infusion followed by activated charcoal administration 10 to 420 mins post compound dosing; assay type: ADME, organism-based, Canis lupus familiaris; parameters: dose 1 mg/kg, route intravenous; conditions: in vivo
[22] = Drug recovery in urine of beagle dog at 5 mg/kg, po measured up to 72 hrs; assay type: ADME, organism-based, Canis lupus familiaris; parameters: dose 5 mg/kg, route oral; conditions: read-out: Drug recovery
[23] = Drug recovery in urine of bile duct-cannulated Sprague-Dawley rat at 30 mg/kg, po measured up to 48 hrs; assay type: ADME, organism-based; parameters: dose 30 mg/kg, route oral; conditions: read-out: Drug recovery
Rattus norvegicus [24] = assay: Renal clearance in P-gp-knockout Sprague-Dawley rat at 2 mg/kg, iv relative to total clearance; assay type: ADME, organism-based, Kidney; parameters: dose 2 mg/kg, route intravenous; conditions: in vivo
Rattus norvegicus [25] = assay: Intestinal clearance in P-gp-knockout Sprague-Dawley rat at 2 mg/kg, iv relative to total clearance; assay type: ADME, organism-based; parameters: dose 2 mg/kg, route intravenous; conditions: in vivo
[26] = Drug recovery in bile of bile duct-cannulated Sprague-Dawley rat at 2 mg/kg, iv administered 1 hr post GF-120918 treatment measured up to 48 hrs; assay type: ADME, organism-based; parameters: dose 2 mg/kg, route intravenous; conditions: with GF-120918, given 1 hr before the compound, read-out: Drug recovery
[27] = Drug recovery in urine of beagle dog at 1 mg/kg, iv administered as 5 mins infusion measured up to 72 hrs; assay type: ADME, organism-based, Canis lupus familiaris; parameters: dose 1 mg/kg, route intravenous; conditions: read-out: Drug recovery
[28] = Cmax in BCRP-knockout Sprague-Dawley rat at 2 mg/kg, iv; assay type: ADME, organism-based; parameters: dose 2 mg/kg, route intravenous; conditions: in vivo
Rattus norvegicus [29] = assay: Metabolism and biliary clearance in BCRP-knockout Sprague-Dawley rat at 2 mg/kg, iv relative to total clearance; assay type: ADME, organism-based, Bile; parameters: dose 2 mg/kg, route intravenous; conditions: in vivo
[30] = Clearance in BCRP-knockout Sprague-Dawley rat at 2 mg/kg, iv; assay type: ADME, organism-based; parameters: dose 2 mg/kg, route intravenous; conditions: in vivo
[31] = Cmax in bile duct-cannulated beagle dog at 1 mg/kg, iv administered as 5 mins infusion; assay type: ADME, organism-based, Canis lupus familiaris; parameters: dose 1 mg/kg, route intravenous; conditions: in vivo
[32] = Drug recovery in feces of beagle dog at 1 mg/kg, iv administered as 5 mins infusion measured up to 72 hrs; assay type: ADME, organism-based, Canis lupus familiaris; parameters: dose 1 mg/kg, route intravenous; conditions: read-out: Drug recovery
[33] = Mean residence time in wild-type bile duct-cannulated Sprague-Dawley rat at 2 mg/kg, iv; assay type: ADME, organism-based; parameters: dose 2 mg/kg, route intravenous; conditions: in vivo
[34] = Drug recovery in bile of bile duct-cannulated beagle dog at 1 mg/kg, iv administered as 5 mins infusion followed by activated charcoal administration 10 to 420 mins post compound measured up to 72 hrs; assay type: ADME, organism-based, Canis lupus familiaris; parameters: dose 1 mg/kg, route intravenous; conditions: read-out: Drug recovery
[35] = Drug recovery in urine of 30 mins activated charcoal pre-treated bile duct-cannulated Sprague-Dawley rat at 2 mg/kg, iv followed by activated charcoal administration 5 to 180 mins post compound dosing measured up to 48 hrs; assay type: ADME, organism-based; parameters: dose 2 mg/kg, route intravenous; conditions: read-out: Drug recovery
[36] = AUC (0 to infinity) in wild-type bile duct-cannulated Sprague-Dawley rat at 2 mg/kg, iv administered 0.125 hr post GF-120918 treatment; assay type: ADME, organism-based; parameters: time infinity, dose 2 mg/kg, route intravenous; conditions: in vivo, with GF-120918
[37] = AUC (0 to infinity) in P-gp-knockout Sprague-Dawley rat at 2 mg/kg, iv; assay type: ADME, organism-based; parameters: time infinity, dose 2 mg/kg, route intravenous; conditions: plasma
[38] = AUC (0 to infinity) in BCRP-knockout Sprague-Dawley rat at 2 mg/kg, iv; assay type: ADME, organism-based; parameters: time infinity, dose 2 mg/kg, route intravenous; conditions: plasma
Canis familiaris [39] = assay: Intestinal clearance in bile duct-cannulated beagle dog at 1 mg/kg, iv administered as 5 mins infusion followed by activated charcoal administration 10 to 420 mins post compound dosing; assay type: ADME, organism-based, Canis lupus familiaris; parameters: dose 1 mg/kg, route intravenous; conditions: in vivo
[40] = Drug recovery in feces of bile duct-cannulated Sprague-Dawley rat at 2 mg/kg, iv administered 1 hr post GF-120918 treatment measured up to 48 hrs; assay type: ADME, organism-based; parameters: dose 2 mg/kg, route intravenous; conditions: with GF-120918, given 1 hr before the compound, read-out: Drug recovery
[41] = Drug recovery in feces of bile duct-cannulated Sprague-Dawley rat at 2 mg/kg, iv measured up to 24 hrs; assay type: ADME, organism-based; parameters: dose 2 mg/kg, route intravenous; conditions: read-out: Drug recovery
[42] = Volume of distribution at steady state in P-gp-knockout Sprague-Dawley rat at 2 mg/kg, iv; assay type: ADME, organism-based; parameters: dose 2 mg/kg, route intravenous; conditions: in vivo, read-out: Vdss
[43] = Mean residence time in wild-type bile duct-cannulated Sprague-Dawley rat at 2 mg/kg, iv administered 0.125 hr post GF-120918 treatment; assay type: ADME, organism-based; parameters: dose 2 mg/kg, route intravenous; conditions: in vivo, with GF-120918
Rattus norvegicus [44] = assay: Intestinal clearance in wild-type bile duct-cannulated Sprague-Dawley rat at 2 mg/kg, iv relative to total clearance; assay type: ADME, organism-based; parameters: dose 2 mg/kg, route intravenous; conditions: in vivo
[45] = Drug recovery in urine of bile duct-cannulated Sprague-Dawley rat at 2 mg/kg, iv measured up to 24 hrs; assay type: ADME, organism-based; parameters: dose 2 mg/kg, route intravenous; conditions: read-out: Drug recovery

COc1ccc(-n2nc(C(N)=O)c3c2[14C](=O)N(c2ccc(N4CCCCC4=O)cc2)CC3)cc1
dose excreted at 168 h [1]: 51.3%
Vd [2]: 0.9 L/kg
CL (Rattus norvegicus [3]): 33%
dose excreted [4]: 13.5%
dose excreted at 72 h [5]: 73.7%
CL renal [6]: 6.5 mL/min/kg
dose excreted at 48 h [7]: 2.6%
dose excreted [8]: 15.7%
clearance [9]: 33.3 mL/min/kg
half-life [10]: 108 min
CL renal at 0.125 h [11]: 5.83 mL/min/kg
CL (Rattus norvegicus [12]): 0.29 L/h/kg
dose excreted at 24 h [13]: 35.5%
half-life [14]: 174 min
fraction unbound [15]: 0.08
CL (Rattus norvegicus [16]): 0.34 L/h/kg
CL (Rattus norvegicus [17]): 0.55 L/h/kg
CL renal [18]: 0.122 mL/min/kg
CL (Rattus norvegicus [19]): 0.25 L/h/kg
fraction unbound [20]: 0.04
CL (Canis familiaris [21]): 11.5 mL/h/kg
dose excreted at 72 h [22]: 8.8%
dose excreted at 48 h [23]: 10.5%
CL (Rattus norvegicus [24]): 43%
CL (Rattus norvegicus [25]): 24%
dose excreted [26]: 14.7%
dose excreted [27]: 9.9%
Cmax [28]: 2370 ng/mL
CL (Rattus norvegicus [29]): 30%
clearance [30]: 15 mL/min/kg
Cmax [31]: 4430 ng/mL
dose excreted [32]: 50.8%
MRT [33]: 36 min
dose excreted [34]: 13.1%
dose excreted [35]: 40.7%
AUC(0-inf) [36]: 2840 ng·h/mL
AUC(0-inf) [37]: 2040 ng·h/mL
AUC(0-inf) [38]: 2340 ng·h/mL
CL (Canis familiaris [39]): 31.2 mL/h/kg
dose excreted [40]: 13.8%
dose excreted at 24 h [41]: 21.1%
Vd [42]: 0.7 L/kg
MRT [43]: 1.7 h
CL (Rattus norvegicus [44]): 21%
dose excreted at 24 h [45]: 49.5%
